Laboratory results taken from PubChem BioAssay (NCI).
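Grown in 96-well plates, cells were treated for 48 hours with each compound at five concentrations. Insufficient inhibition: endpoint recorded as highest concentration tested. TGI denotes the concentration required for complete inhibition of growth.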

Experiments:
Experiment in all cases: growth of human tumour cells (NCI), 48 h
LOX IMVI melanoma = system: LOX IMVI melanoma
OVCAR-4 ovarian = system: OVCAR-4 ovarian
KM12 colon = system: KM12 colon
ACHN renal = system: ACHN renal
SR leukemia = system: SR leukemia
MOLT-4 leukemia = system: MOLT-4 leukemia
EKVX NSCLC = system: EKVX NSCLC
HCT-15 colon = system: HCT-15 colon
RPMI-8226 leukemia = system: RPMI-8226 leukemia
MDA-MB-231 breast = system: MDA-MB-231 breast
MCF7 breast = system: MCF7 breast
786-0 renal = system: 786-0 renal
HOP-62 NSCLC = system: HOP-62 NSCLC
NCI-H460 lung = system: NCI-H460 lung
SF-268 CNS = system: SF-268 CNS
HL-60(TB) leukemia = system: HL-60(TB) leukemia
COLO 205 colon = system: COLO 205 colon
NCI/ADR-RES ovarian = system: NCI/ADR-RES ovarian
NCI-H522 lung = system: NCI-H522 lung

Compound | TGI (LOX IMVI melanoma) | TGI (OVCAR-4 ovarian) | TGI (KM12 colon) | TGI (ACHN renal) | TGI (SR leukemia) | TGI (MOLT-4 leukemia) | TGI (EKVX NSCLC) | TGI (HCT-15 colon) | TGI (RPMI-8226 leukemia) | TGI (MDA-MB-231 breast) | TGI (MCF7 breast) | TGI (786-0 renal) | TGI (HOP-62 NSCLC) | TGI (NCI-H460 lung) | TGI (SF-268 CNS) | TGI (HL-60(TB) leukemia) | TGI (COLO 205 colon) | TGI (NCI/ADR-RES ovarian) | TGI (NCI-H522 lung)
CSc1ccc(/C=C2\N=C(c3ccccc3)N(c3nc4c(Cl)cc(Cl)cc4s3)C2=O)cc1 | 82.1 µM | 58.4 µM | 88.6 µM | 68.5 µM | 50.3 µM | 49.5 µM | 49.9 µM | > 100 µM | > 100 µM | 62.5 µM | > 100 µM | > 100 µM | 39.7 µM | > 100 µM | 86.3 µM | 69.7 µM | > 100 µM | 68.2 µM | –
CCc1n[nH]c(=O)n1NC(=O)c1ccccc1C(=O)O | > 100 µM | > 100 µM | > 100 µM | > 100 µM | > 100 µM | > 100 µM | > 100 µM | > 100 µM | > 100 µM | > 100 µM | > 100 µM | > 100 µM | > 100 µM | – | > 100 µM | – | > 100 µM | > 100 µM | > 100 µM
CCn1c(-c2ccc(C)cc2)cs/c1=N\C(P(=O)(O)O)P(=O)(O)O | > 100 µM | – | > 100 µM | > 100 µM | > 100 µM | > 100 µM | > 100 µM | > 100 µM | > 100 µM | > 100 µM | > 100 µM | > 100 µM | > 100 µM | > 100 µM | > 100 µM | > 100 µM | > 100 µM | > 100 µM | > 100 µM
Cc1ccc(Nc2sc(C)cc2C#N)c([N+](=O)[O-])c1 | – | > 100 µM | > 100 µM | > 100 µM | > 100 µM | > 100 µM | > 100 µM | > 100 µM | > 100 µM | > 100 µM | > 100 µM | > 100 µM | > 100 µM | > 100 µM | > 100 µM | – | > 100 µM | > 100 µM | > 100 µM
Nc1nc(N)c2nnn(C[C@H]3CC[C@@H](CO)C3)c2n1 | > 100 µM | – | > 100 µM | > 100 µM | > 100 µM | > 100 µM | > 100 µM | > 100 µM | > 100 µM | > 100 µM | > 100 µM | > 100 µM | > 100 µM | > 100 µM | > 100 µM | > 100 µM | > 100 µM | > 100 µM | > 100 µM
Nn1c(SCC(=O)NCc2ccccc2)nc2ccccc2c1=O | > 100 µM | > 100 µM | > 100 µM | > 100 µM | 69 µM | 49.5 µM | > 100 µM | > 100 µM | > 100 µM | > 100 µM | > 100 µM | > 100 µM | – | > 100 µM | > 100 µM | – | > 100 µM | > 100 µM | > 100 µM
N#Cc1ccc(-c2nc3ccc(Cl)cc3[nH]2)cc1 | – | – | > 100 µM | – | > 100 µM | > 100 µM | > 100 µM | > 100 µM | > 100 µM | > 100 µM | > 100 µM | > 100 µM | > 100 µM | – | – | > 100 µM | > 100 µM | > 100 µM | > 100 µM
O=C1OC[C@@H]2Cc3c([nH]c4ccccc34)[C@@H](c3cc(O)c(O)c(O)c3)N12 | – | 26.1 µM | > 100 µM | > 100 µM | 61.9 µM | 85.9 µM | > 100 µM | > 100 µM | 65.8 µM | 42.3 µM | 84.1 µM | 56.1 µM | 67.8 µM | > 100 µM | > 100 µM | 15 µM | 42.6 µM | 72.3 µM | 22.8 µM
CC(C)(C)OC(=O)NC(Cc1ccc(OCc2ccccc2)cn1)C(=O)N1CCSCC1 (stereo not given) | > 100 µM | – | > 100 µM | > 100 µM | 75.3 µM | 59.1 µM | > 100 µM | > 100 µM | 59.1 µM | > 100 µM | > 100 µM | > 100 µM | > 100 µM | > 100 µM | > 100 µM | 81.1 µM | 33.1 µM | 94.5 µM | > 100 µM
N#C[C@@]12CCCC(=O)[C@@H]1[C@H]1CCC[C@H]12 | 31 µM | 58.6 µM | 27.4 µM | 33.1 µM | 59.5 µM | 55.9 µM | 28.6 µM | 38.2 µM | 32.3 µM | 31.2 µM | 49.8 µM | 29.4 µM | 30.8 µM | 32.8 µM | – | 34.1 µM | 45.7 µM | 59.4 µM | –
OCCN=C1c2ccccc2C2C(c3ccccc31)C1c3ccccc3C(=NCCO)c3ccccc3C21 (stereo not given) | 52.6 µM | 60.2 µM | 44 µM | 76.9 µM | 28.9 µM | 27.6 µM | > 100 µM | 63.9 µM | 37.2 µM | 31.4 µM | 60 µM | 47.2 µM | 39.4 µM | 58.3 µM | > 100 µM | 47.2 µM | 44.4 µM | 72.6 µM | –
